We go through 1 molecule from patent publication US5128420A, “Method of making hydroxamic acid polymers from primary amide polymers” (Massachusetts Institute of Technology, priority 1988, dated 1992).

This assay relates to urease forming bacteria, Proteus. Kind of assay: Urease inhibition activity (ammonia production by urease forming bacteria in artificial urine). Type of assay: cell-based. Here is the method:
PHA was tested for urease inhibition activity using the procedure of Griffith et al in Investigative Urology 13(5),346-350(1976). Briefly, one square centimeter of agar slab containing a layer of urease forming bacteria, Proteus, was dissolved in 25 ml of artificial urine made of 25 g urea dissolved in one liter water. 30 mg polymer was added per ml urine and the mixture incubated overnight at 37° C. The production of ammonia, indicative of urease activity, was measured using an amino acid analyzer.
*% activity was estimated relative to AHA from the ratio between the
decrease in ammonia number of the polymer and AHA.

The structures appear in SMILES notation.

For `CC(=O)NO` [AHA, acetyl hydroxamic acid], the Ammonia (30 mg per ml artificial urine, overnight at 37° C., amino acid analyzer) was 1165-1331. Besides, the “% Activity” value (estimated relative to AHA from the ratio between the decrease in ammonia number of the polymer and AHA) was 100%.
